Results on 27 compounds are retold here after US20220340875A1, “METHODS OF CULTURING AND/OR EXPANDING STEM CELLS AND/OR LINEAGE COMMITTED PROGENITOR CELLS USING AMIDO COMPOUNDS” (IDEAYA BIOSCIENCES, INC., priority 2018, published 2022).

In the assay the target is T1, hAhR (Homo sapiens, UniProt P35869).
T1 construct: Stably integrated DRE-luciferase cell lines were generated by transducing the both cell lines with Cignal XRE luciferase reporter (Qiagen) lentiviral particles; endogenous in cells
T1 sequence (P35869 11-848): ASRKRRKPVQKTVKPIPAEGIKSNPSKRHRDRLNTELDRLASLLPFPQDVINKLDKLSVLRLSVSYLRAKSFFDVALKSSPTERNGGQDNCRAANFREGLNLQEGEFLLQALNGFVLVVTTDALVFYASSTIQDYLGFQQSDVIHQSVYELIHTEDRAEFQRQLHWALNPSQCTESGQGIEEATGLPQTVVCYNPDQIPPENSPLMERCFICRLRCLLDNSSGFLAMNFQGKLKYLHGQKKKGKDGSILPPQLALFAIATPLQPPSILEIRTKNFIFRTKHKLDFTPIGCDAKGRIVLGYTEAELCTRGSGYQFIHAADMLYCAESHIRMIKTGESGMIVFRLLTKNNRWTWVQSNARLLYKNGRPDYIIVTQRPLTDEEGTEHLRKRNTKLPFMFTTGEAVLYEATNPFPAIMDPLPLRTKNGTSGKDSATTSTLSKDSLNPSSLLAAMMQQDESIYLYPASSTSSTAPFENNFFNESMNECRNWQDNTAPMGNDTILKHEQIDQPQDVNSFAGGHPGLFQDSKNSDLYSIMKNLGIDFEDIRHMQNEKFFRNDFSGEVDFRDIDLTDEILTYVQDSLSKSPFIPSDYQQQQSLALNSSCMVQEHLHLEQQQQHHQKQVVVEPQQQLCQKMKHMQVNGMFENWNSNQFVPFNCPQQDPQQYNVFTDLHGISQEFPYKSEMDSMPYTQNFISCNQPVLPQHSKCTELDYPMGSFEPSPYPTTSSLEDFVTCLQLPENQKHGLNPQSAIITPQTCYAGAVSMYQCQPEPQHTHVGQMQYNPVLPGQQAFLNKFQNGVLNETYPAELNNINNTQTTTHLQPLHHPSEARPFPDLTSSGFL
In words: AhR DRE-luciferase reporter transcriptional assay, antagonist mode (TCDD-induced). The format is cell-based. To be noted: HEPG2 DRE-Luc cells, 3 nM TCDD, 24 hour incubation, relative IC50. On the procedure:
HEPG2 and HEPA1C1C7 cells were maintained in MEM and αMEM without nucleosides supplemented with 10% heat inactivated FBS respectively. Stably integrated DRE-luciferase cell lines were generated by transducing the both cell lines with Cignal XRE luciferase reporter (Qiagen) lentiviral particles according to the manufacturer protocol. For both cell lines stably integrated reporter cell lines were selected for the presence of 2 µg/mL puromycin. Following selection of stably integrated cell line pools, clonal cell lines were isolated by limiting dilution in 96-well plates. Transcriptional assays were performed by seeding 100 μL of cells at a density of 250,000 or 100,000 cells/mL, for HEPG2 and HEPA1C1C7 DRE-Luc cells respectively, into 96-well cell culture plates in OptiMEM supplemented with 0.5% heat inactivated FBS and allowed to attach overnight. For modulator assays, the compounds were added in a semi-log dose response using a D300e Digital Dispenser (Tecan) followed normalization with vehicle (DMSO). Immediately following compound addition 10 μL of 2,3,7,8-Tetrachlorodibenzo-p-dioxin (TCDD) was added to the cells to a final concentration of 3 nM or 0.3 nM for the HEPG2 and HEPA1C1C7 DRE-Luc cells respectively. Following 24 hour incubation the medium was removed and the cells were lysed in 25 μL of Reporter Lysis Buffer (Promega). Firefly luciferase activity was measured immediately following the addition of 50 μL Luciferase Assay Reagent (Promega). The percent maximal activity for each point was determined using the following equasion: (RLUsample-RLUvehicle−TCDD)/(RLUvehicle+TCDD RLUvehicle−TCDD)*100. The relative IC50, defined as the compound concentration required to reduce the TCDD induced response between the top and bottom plateau of each individual dose response curve by half, for each compound was determined using Prism 7 (GraphPad Software).
On the technique in general: Reporter assays use an easily measured gene product as a stand-in for the process of interest.
Regarding `Cc1cc(-c2ncc3cc(C(F)(F)F)ccc3n2)ccc1N(C)C(=O)c1ccnn1CCO` [Example 211, 1-(2-hydroxyethyl)-N-methyl-N-(2-methyl-4-(6-(trifluoromethyl)quinazolin-2-yl)phenyl)-1H-pyrazole-5-carboxamide], the IC50 was less than 0.2 µM.
The figure for `Cc1cc(-c2ccc3cccc(Cl)c3n2)ccc1NC(=O)c1ccnn1C` [Example 012, N-(4-(8-chloroquinolin-2-yl)-2-methylphenyl)-1-methyl-1H-pyrazole-5-carboxamide] is less than 0.2 µM; for `Cc1cc(-c2ccc3cc(C(F)(F)F)ccc3n2)c(C)cc1NC(=O)c1nn(C)cc1C` [Example 208, N-(2,5-dimethyl-4-(6-(trifluoromethyl)quinolin-2-yl)phenyl)-1,4-dimethyl-1H-pyrazole-3-carboxamide] it is 1 to 10 µM; for `Cc1cc(-c2ncc3cc(C(F)(F)F)ccc3n2)ccc1NC(=O)c1ccncc1` [Example 115, N-(2-methyl-4-(6-(trifluoromethyl)quinazolin-2-yl)phenyl)isonicotinamide] it is less than 0.2 µM.
The figure for `Cc1cc(-c2ccc3cc(F)ccc3n2)ccc1NC(=O)c1cncn1C` [Example 034, N-(4-(6-fluoroquinolin-2-yl)-2-methylphenyl)-1-methyl-1H-imidazole-5-carboxamide] is 0.5 to 1 µM; for `COc1cnccc1C(=O)Nc1ccc(-c2ncc3nc(C(F)(F)F)cc(C)c3n2)cc1C` [Example 184, 3-methoxy-N-(2-methyl-4-(8-methyl-6-(trifluoromethyl)pyrido[3,2-d]pyrimidin-2-yl)phenyl)isonicotinamide] it is less than 0.2 µM; for `Cc1cc(-c2ncc3cc(C(F)(F)F)ccc3n2)ccc1N(C)C(=O)c1ccncc1` [Example 116, N-methyl-N-(2-methyl-4-(6-(trifluoromethyl)quinazolin-2-yl)phenyl)isonicotinamide] it is less than 0.2 µM.
Compound `Cc1c(N(C)C(=O)c2ccnn2C)ccc(-c2ncc3nc(C(F)(F)F)cc(C)c3n2)c1F` [Example 175, N-(3-fluoro-2-methyl-4-(8-methyl-6-(trifluoromethyl)pyrido[3,2-d]pyrimidin-2-yl)phenyl)-N,1-dimethyl-1H-pyrazole-5-carboxamide] returned an IC50 of less than 0.2 µM.
On to `Cc1cc(N(C)C(=O)c2ccnn2C)c(C)cc1-c1ncc2nc(C(F)(F)F)ccc2n1` [Example 188, N-(2,5-dimethyl-4-(6-(trifluoromethyl)pyrido[3,2-d]pyrimidin-2-yl)phenyl)-N,1-dimethyl-1H-pyrazole-5-carboxamide], for which the IC50 is less than 0.2 µM.
For `Cc1cc(-c2ncc3cc(C(F)(F)F)ccc3n2)ccc1N(C)C(=O)c1ncn[nH]1` [Example 134, N-methyl-N-(2-methyl-4-(6-(trifluoromethyl)quinazolin-2-yl)phenyl)-1H-1,2,4-triazole-5-carboxamide], the IC50 was 0.2 to 0.5 µM.
As for `Cc1cc(C(=O)Nc2ccc(-c3ncc4nc(C(F)(F)F)cc(C)c4n3)cc2F)ccn1` [Example 164, N-(2-fluoro-4-(8-methyl-6-(trifluoromethyl)pyrido[3,2-d]pyrimidin-2-yl)phenyl)-2-methylisonicotinamide], the 50% inhibitory concentration (IC50) was less than 0.2 µM.
`Cc1cc(-c2ccc3nncc(C)c3c2)ccc1NC(=O)c1ccnn1C` [Example 062, 1-methyl-N-(2-methyl-4-(4-methylcinnolin-6-yl)phenyl)-1H-pyrazole-5-carboxamide] yielded an IC50 of 1 to 10 µM.
The result for `Cc1cc(-c2ncc3nc(C(F)(F)F)ccc3n2)c(C)cc1NC(=O)c1ccnn1C` [Example 189, N-(2,5-dimethyl-4-(6-(trifluoromethyl)pyrido[3,2-d]pyrimidin-2-yl)phenyl)-1-methyl-1H-pyrazole-5-carboxamide] reads 1 to 10 µM; that for `Cc1cc(-c2ccc3c(C(F)(F)F)cn(C)c3c2)ccc1N(C)C(=O)c1ccnn1C` [Example 087, N,1-dimethyl-N-(2-methyl-4-(1-methyl-3-(trifluoromethyl)-1H-indol-6-yl)phenyl)-1H-pyrazole-5-carboxamide], 1 to 10 µM; that for `CCN(C(=O)c1ccnn1C)c1ccc(-c2ccc3cc(C(F)(F)F)ccc3n2)cc1C` [Example 004, N-Ethyl-1-methyl-N-(2-methyl-4-(6-(trifluoromethyl)quinolin-2-yl)phenyl)-1H-pyrazole-5-carboxamide], less than 0.2 µM.
The result for `Cc1ccc2nc(-c3ccc(NC(=O)c4ccnn4C)c(C)c3)ccc2c1` [Example 079, 1-methyl-N-(2-methyl-4-(6-methylquinolin-2-yl)phenyl)-1H-pyrazole-5-carboxamide] reads 0.5 to 1 µM; that for `CNC(=O)c1cc(C(=O)Nc2ccc(-c3ncc4nc(C(F)(F)F)cc(C)c4n3)cc2C)ccn1` [Example 167, N2-methyl-N4-(2-methyl-4-(8-methyl-6-(trifluoromethyl)pyrido[3,2-d]pyrimidin-2-yl)phenyl)pyridine-2,4-dicarboxamide], less than 0.2 µM; that for `Cc1cc(-c2ncc3nc(C(F)(F)F)cc(C)c3n2)ccc1N(C)C(=O)c1cc(C(=O)O)nn1CC#N` [Example 197, 1-(cyanomethyl)-5-(methyl(2-methyl-4-(8-methyl-6-(trifluoromethyl)-pyrido[3,2-d]pyrimidin-2-yl)phenyl)carbamoyl)-1H-pyrazole-3-carboxylic acid], 1 to 10 µM.
For `Cc1cc(-c2ncc3nc(C(F)(F)F)ccc3n2)ccc1N(C)C(=O)c1ccnn1C` [Example 136, N,1-dimethyl-N-(2-methyl-4-(6-(trifluoromethyl)pyrido[3,2-d]pyrimidin-2-yl)phenyl)-1H-pyrazole-5-carboxamide], the IC50 was less than 0.2 µM.
The result for `Cc1cc(-c2ccc3cccc(C)c3n2)ccc1NC(=O)c1ccnn1C` [Example 020, 1-Methyl-N-(2-methyl-4-(8-methylquinolin-2-yl)phenyl)-1H-pyrazole-5-carboxamide] reads less than 0.2 µM; that for `Cc1cc(-c2ccc3cc(F)ccc3n2)ccc1NC(=O)c1cn(C)cn1` [Example 035, N-(4-(6-fluoroquinolin-2-yl)-2-methylphenyl)-1-methyl-1H-imidazole-4-carboxamide], 1 to 10 µM.
Regarding `Cc1cc(-c2ncc3cc(C(F)(F)F)ccc3n2)ccc1N(C)C(=O)N(C)C` [Example 129, 1,1,3-trimethyl-3-(2-methyl-4-(6-(trifluoromethyl)quinazolin-2-yl)phenyl)urea], the IC50 was in the range of 0.2 to 0.5 µM.
For `Cc1cc(-c2ncc3cc(C(F)(F)F)ccc3n2)ccc1NC(=O)c1ccnn1C` [Example 112, 1-methyl-N-(2-methyl-4-(6-(trifluoromethyl)quinazolin-2-yl)phenyl)-1H-pyrazole-5-carboxamide], the concentration for half-maximal inhibition (IC50) was less than 0.2 µM.
`Cc1cc(-c2ncc3cc(C(F)(F)F)ccc3n2)ccc1N(C)C(=O)c1ccnn1CCN1CCOCC1` [Example 157, N-methyl-N-(2-methyl-4-(6-(trifluoromethyl)quinazolin-2-yl)phenyl)-1-(2-morpholinoethyl)-1H-pyrazole-5-carboxamide] displayed an IC50 of less than 0.2 µM.
`Cc1cc(-c2ncc3cc(C(F)(F)F)ccc3n2)ccc1N1CCNC1=O` [Example 141, 1-(2-methyl-4-(6-(trifluoromethyl)quinazolin-2-yl)phenyl)imidazolidin-2-one] yielded an IC50 of less than 0.2 µM.
`COC(=O)Nc1ccc(-c2ccc3cc(F)ccc3n2)cc1C` [Example 024, methyl (4-(6-fluoroquinolin-2-yl)-2-methylphenyl)carbamate] gave an IC50 of 0.2 to 0.5 µM.
Compound `Cc1cc(-c2ncc3cc(C(F)(F)F)ccc3n2)ccc1N(C)C(=O)c1nnn[nH]1` [Example 133, N-methyl-N-(2-methyl-4-(6-(trifluoromethyl)quinazolin-2-yl)phenyl)-1H-tetrazole-5-carboxamide] showed an IC50 of 1 to 10 µM.

Usually IC50 stands for the point on the concentration scale where inhibition reaches its midpoint. Lower therefore signals greater potency in that assay.
